The nature of this series: solvent given as SMILES.

Our source for the emission maximum values is the Deep4Chem optical property database.

Structures are written as SMILES.

Regarding `O=S1(=O)c2ccccc2-c2cc(-n3c4ccccc4c4cc(-c5ccc6c(c5)c5ccccc5n6-c5ccccc5)ccc43)ccc21`, the emission maximum (in O=P(c1ccccc1)(c1ccccc1)c1ccccc1Oc1ccccc1P(=O)(c1ccccc1)c1ccccc1) is given as 462.73 nm.

In the case of `COc1ccc(-c2cnc(-c3ccccc3)o2)cc1OC`, for the setting “in ClCCl”, the emission maximum stood at 400 nm.

`CN(C)c1ccc(/C=C/C=C/c2nc3ccccc3o2)cc1` returned an emission maximum (in C1COCCO1) of 508 nm; an emission maximum (in CC#N) of 535 nm; an emission maximum (in CC(C)=O) of 531 nm; an emission maximum (in CCCCCC) of 474 nm; an emission maximum (in CCCCO) of 525 nm; an emission maximum (in CCCO) of 526 nm. Besides, the emission maximum runs as follows: (in CCO) 531 nm; (in CN(C)C=O) 538 nm; (in CO) 539 nm; (in Cc1ccccc1) 496 nm; (in ClC(Cl)(Cl)Cl) 491 nm; (in ClC(Cl)Cl) 517 nm. For the same compound, the emission maximum was 525 nm (in ClCCl), 566 nm (in OCC(O)CO), 562 nm (in OCCO) and 503 nm (in c1ccccc1).

As for `CCOC(=O)c1c2c3c(ccc(Cl)c3c3cc4ccccc4cc13)N(C)C2=O`, where the note is “in CC#N”, the emission maximum came to 414 nm.

In the case of `O=C(c1ccc2c3c(cccc13)-c1cccc3c1C2CC=C3)c1c(Cc2ccccc2)c2ccc3cccc4c5cccc6ccc1c(c65)c2c34` (centres undefined), the emission maximum (in ClCCl) was determined as 528 nm.

`CC1(C)Nc2cc3nc4cc(Cl)c(Cl)cc4nc3cc2N1` gave an emission maximum (in CCO) of 506 nm.

With `Cc1cccc(-c2c3ccccc3c(-c3cccc(C)n3)c3ccccc23)n1`, under “in ClCCl”, the emission maximum was determined as 428 nm.

Regarding `Cc1ccccc1-c1c2ccc(=[N+]3CCOCC3)cc-2oc2cc(N3CCOCC3)ccc12`, the emission maximum was determined as 582 nm (in CCO) and 575 nm (in ClCCl).

For `c1ccc(N(c2ccccc2)c2cc3c4c(c2)N(c2ccccc2)c2cc5c(cc2B4c2ccccc2N3c2ccccc2)B2c3ccccc3N(c3ccccc3)c3cc(N(c4ccccc4)c4ccccc4)cc(c32)N5c2ccccc2)cc1`, the emission maximum was 468 nm (in Cc1ccccc1) and 473 nm (in Cc1ccccc1-c1cccc(Oc2cc3c4c(c2)Oc2cc(-c5ccccc5C)ccc2B4c2ccc(-c4ccccc4C)cc2O3)c1).

Compound `CCCCN1c2ccccc2Sc2cc(/C=C\c3cc(=O)oc4ccc(C)cc34)ccc21` had an emission maximum (in ClC(Cl)Cl) of 635 nm.

Take `[O-][n+]1c(-c2ccccc2)cc(N2CCOCC2)nc1/C=C/c1ccccc1`: the emission maximum (in ClCCl) is on record as 548 nm.

For the compound `F[B-]1(F)n2cccc2C(c2ccccc2)=C2C=CC=[N+]21`, the emission maximum reads like this: (in Cc1ccccc1) 521 nm; (in ClCCl) 522 nm.

As to `C/C(=C\c1ccc(Cl)cc1)c1nc2ccccc2s1`, the emission maximum runs as follows: (in C1CCCCC1) 390 nm; (in CO) 400 nm.

For the compound `Oc1ccc(Br)cc1-c1nc2c(c3c1-c1ccccc1CC3)-c1ccccc1CC2`, the emission maximum (in ClCCl) is on record as 421 nm.

In turn, `COc1ccc(C2=C(c3ccc(F)cc3)C(c3ccccc3)=[N+]3C2=Nc2c(-c4ccc(OC)cc4)c(-c4ccc(F)cc4)c(-c4ccccc4)n2[B-]3(F)F)cc1` displayed an emission maximum (in Cc1ccccc1) of 692 nm.

As to `CC1CC=C(c2ccc(-c3ccc(C=O)s3)s2)CC1` (centres undefined), the emission maximum worked out at 467 nm (in C1CCOC1); 482 nm (in CC#N); 445 nm (in CCCCCC); 500 nm (in CCO); 508 nm (in OCCOCCO); 483 nm (in c1ccncc1).

For the compound `COc1cc(OC)c2c(c1)C(=O)c1cc(OC)cc(OC)c1-2`, for the setting “in C1CCCCC1”, the emission maximum turned out to be 585 nm.

In turn, `N#Cc1c(-n2c3ccccc3c3ccccc32)nc(-n2c3ccccc3c3ccccc32)c(C#N)c1-c1ccccc1` had an emission maximum (in c1cc(-c2cccc(-n3c4ccccc4c4ccccc43)c2)cc(-n2c3ccccc3c3ccccc32)c1) of 475 nm.

In the case of `C[P+]1(c2ccccc2)C2=C(c3ccccc31)S(=O)(=O)c1ccccc12` (centres undefined), the emission maximum is, setting by setting: (in CC#N) 479 nm; (in CCO) 419 nm; (in ClCCl) 483 nm.

In turn, `CC(C)(C)c1cc(-c2ccc(-c3cccs3)s2)c2c(c1)c1cc(C(C)(C)C)cc(-c3ccc(-c4cccs4)s3)c1n2-c1ccc(-c2cccs2)s1` came in with an emission maximum (in ClCCl) of 434 nm.

As to `CN(C)c1ccc(-c2ccc(-c3ccc(N(C)C)cc3)c3nc(-c4ccccc4)c(-c4ccccc4)nc23)cc1`, the emission maximum by setting is: (in C1CCOC1) 601 nm; (in CC#N) 646 nm; (in CCCCCC) 538 nm; (in CN(C)C=O) 648 nm; (in Cc1ccccc1) 577 nm; (in ClC(Cl)Cl) 597 nm.

Regarding `C=Cc1cc2ccc(N(CC)CC)cc2oc1=O`, the emission maximum (in CC#N) turned out to be 470 nm.

With `COc1ccc(/C=C/C=C/C2=NC3C(=O)NC(N)=NC3N2[C@H]2C[C@H](O)[C@@H](CO)O2)cc1` (some centres undefined), the emission maximum is on record as 429 nm (in C1COCCO1), 441 nm (in CC#N) and 438 nm (in CO).

Under “in ClCCl”, `O=[N+]([O-])c1ccc(C#Cc2ccc3ccc(C#Cc4ccc([N+](=O)[O-])cc4)cc3c2)cc1` gave an emission maximum of 527 nm.

As to `c1cc2c3c4c5c(cccc5cc3c1)-c1cccn1B4n1cccc1-2`, the emission maximum (in C1CCOC1) was found to be 601 nm.

For `COCCN(CCOC)c1ccc(/C=C/c2sc3c4nc(C)sc4ccc3[n+]2C)cc1`, the emission maximum reads like this: (in CO) 601 nm; (in ClC(Cl)Cl) 601 nm.

For the setting “in C1CCOC1”, `Cc1ccc(-c2cnc3nn4ccccc4c3c2)cc1` had an emission maximum of 418 nm.

In turn, `CN(C)c1ccc(/C=C/C=C/c2ccc(B(O)O)cc2)cc1` gave an emission maximum (in C1CCCCC1) of 441 nm.

Regarding `C[n+]1ccc(/C=C/c2ccc(N(c3ccccc3)c3ccc(/C=C/c4cc[n+](C)cn4)cc3)cc2)nc1`, the emission maximum reads like this: (in CS(C)=O) 720 nm; (in OCC(O)CO) 685 nm.

On to `O=C1NC(=O)c2c1c1c3ccccc3[nH]c1c1[nH]c3ccccc3c21`, for which the emission maximum is, setting by setting: (in C1CCOC1) 475 nm; (in CC#N) 500 nm; (in CC(C)OC(C)C) 450 nm; (in CCCCOCCCC) 461 nm; (in CCO) 550 nm; (in CCOC(C)=O) 473 nm. In addition, the emission maximum amounted to 503 nm (in CN(C)C=O), 465 nm (in Cc1ccccc1) and 492 nm (in ClCCl).

Compound `Cc1cccc2c1nc1c(=O)n(C)c(=O)nc-1n2C` returned an emission maximum (in CC#N) of 493 nm.

As to `S=P1(c2ccccc2)c2cccc3c4c5ccccc5c5ccccc5c4c4ccc1n4c23` (centres undefined), for the setting “in ClCCl”, the emission maximum was 493 nm.

For the compound `CC1(C)C2=[N+](CCCCCC(=O)NCCCNC(=O)CCCCCN3/C(=C/C=C/C=C/C=C/2)C(C)(C)c2cc(S(=O)(=O)[O-])ccc23)c2ccc(S(=O)(=O)[O-])cc21`, the emission maximum is given as 776 nm (in CO) and 768 nm (in O).

Turning to `CC(C)(C)NC(=O)c1ccc(-c2cc3ccccc3s2)c2ccc3c4ccccc4c4ccccc4c3c12`, for the setting “in ClCCl”, the emission maximum was determined as 441 nm.

As to `CCOC(=O)/C(C#N)=C/c1cc2c3ccccc3n(C)c2cc1OC`, the emission maximum by setting is: (in C1CCOC1) 460 nm; (in CC#N) 486 nm; (in CCOC(C)=O) 458 nm; (in CN(C)C=O) 486 nm; (in CO) 486 nm; (in CS(C)=O) 488 nm. In addition, the emission maximum (in Cc1ccccc1) was 446 nm, the emission maximum (in ClC(Cl)Cl) turned out to be 468 nm and the emission maximum (in ClCCl) is 472 nm.

Take `CCCCc1cc(-c2cccc(COC)c2)oc1-c1cccc(-c2oc(-c3cccc(COC)c3)cc2CCCC)c1`: the emission maximum (in ClC(Cl)Cl) came out at 371 nm.

Where the note is “in CCO”, `CNc1cc2nc3cc(F)c(F)cc3nc2cc1NC` gave an emission maximum of 529 nm.

Compound `CCCCC(CC)Cn1c2cc(C#N)ccc2c2ccc(C#Cc3cc(C#Cc4ccc5c6ccc(C#N)cc6n(CC(CC)CCCC)c5c4)c4ccc5c(C#Cc6ccc7c8ccc(C#N)cc8n(CC(CC)CCCC)c7c6)cc(C#Cc6ccc7c8ccc(C#N)cc8n(CC(CC)CCCC)c7c6)c6ccc3c4c65)cc21` (centres undefined) gave an emission maximum (in ClCCl) of 486 nm.

Regarding `CCN(CC)c1ccc(/N=N/c2nc3ccc(Br)cc3s2)cc1`, the emission maximum (in CC#N) came out at 580 nm and the emission maximum (in ClCCl) was 578 nm.

As for `c1ccc2c(c1)OP1(=NP3(=NP(Oc4ccc5ccc6cccc7ccc4c5c67)(Oc4ccc5ccc6cccc7ccc4c5c67)=N1)Oc1ccccc1-c1ccccc1O3)Oc1ccccc1-2`, under “in ClCCl”, the emission maximum was determined as 463 nm.

Regarding `CCOC(=O)c1cc(C(=O)OCC)c2cc(NC)ccc2n1`, the emission maximum (in CCO) is given as 539 nm.

`CC(C)(C)OC(=O)NC(C(=O)OCc1ccc2c3cccc4cccc(c5cccc1c52)c43)c1c[nH]c2ccccc12` (centres undefined) showed an emission maximum (in CCO) of 447 nm.

Compound `CCCCCCOc1cc(/C=C/c2cc(OCCCCCC)c(/C=C/c3cc(OCCCCCC)c(/C=C4\C(=O)c5ccccc5C4=C(C#N)C#N)cc3OCCCCCC)cc2OCCCCCC)c(OCCCCCC)cc1/C=C1\C(=O)c2ccccc2C1=C(C#N)C#N` displayed an emission maximum (in ClCCl) of 765 nm.

On to `[BH3-][P+]1(c2ccccc2)c2ccccc2-c2sc3ccccc3c21` (centres undefined), for which the emission maximum is, setting by setting: (in C1CCCCC1) 395 nm; (in CC#N) 401 nm; (in CCO) 400 nm; (in ClCCl) 400 nm.

Turning to `c1cc2c([nH]c3c4[nH]c5sccc5c4c4nsnc4c23)s1`, the emission maximum is given as 511 nm (in C1CCOC1); 510 nm (in CCOC(C)=O); 547 nm (in CN(C)C=O); 496 nm (in Cc1ccccc1); 533 nm (in ClCCl).

`S=P1(c2ccccc2)c2cccc3ccc4ccc1n4c23` (centres undefined): the emission maximum (in ClCCl) was determined as 490 nm.

As to `CCCCCCCCOc1ccc(-c2c3c4n(c(-c5ccc(OCCCCCCCC)cc5)c3c3n2[B-](F)(F)[n+]2ccccc2N=3)[B-](F)(F)[n+]2ccccc2N=4)cc1`, the emission maximum (in ClC(Cl)Cl) worked out at 661 nm.

On to `CCCCCCOc1ccc2ccc3oc(=O)cc4cc(OCCCCCC)c1c2c43`, for which the emission maximum (in CC1CCCO1) stood at 490 nm.

Where the note is “in O”, `O=C(O)CCCCCNC(=O)c1cccc2c(=O)c3ccccc3[nH]c12` displayed an emission maximum of 438 nm.
